Reference: PubChem BioAssay (NCI)
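Results reflect a 48-hour exposure of cells in 96-well plates to compound at five concentrations. TGI marks complete inhibition of growth.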

Key:
Assay in all cases: growth of human tumour cells (NCI), 48 h
U251 CNS = test system: U251 CNS
SK-MEL-5 melanoma = test system: SK-MEL-5 melanoma
ACHN renal = test system: ACHN renal
NCI-H23 lung = test system: NCI-H23 lung
T-47D breast = test system: T-47D breast
HCT-116 colon = test system: HCT-116 colon
A498 renal = test system: A498 renal
RXF 393 renal = test system: RXF 393 renal
HOP-92 NSCLC = test system: HOP-92 NSCLC
A549 NSCLC = test system: A549 NSCLC
K-562 leukemia = test system: K-562 leukemia
MOLT-4 leukemia = test system: MOLT-4 leukemia
EKVX NSCLC = test system: EKVX NSCLC
SW-620 colon = test system: SW-620 colon
MDA-N = test system: MDA-N
PC-3 prostate = test system: PC-3 prostate
MDA-MB-435 = test system: MDA-MB-435
NCI-H460 lung = test system: NCI-H460 lung
SK-OV-3 ovarian = test system: SK-OV-3 ovarian

SMILES	TGI (U251 CNS) [µM]	TGI (SK-MEL-5 melanoma) [µM]	TGI (ACHN renal) [µM]	TGI (NCI-H23 lung) [µM]	TGI (T-47D breast) [µM]	TGI (HCT-116 colon) [µM]	TGI (A498 renal) [µM]	TGI (RXF 393 renal) [µM]	TGI (HOP-92 NSCLC) [µM]	TGI (A549 NSCLC) [µM]	TGI (K-562 leukemia) [µM]	TGI (MOLT-4 leukemia) [µM]	TGI (EKVX NSCLC) [µM]	TGI (SW-620 colon) [µM]	TGI (MDA-N) [µM]	TGI (PC-3 prostate) [µM]	TGI (MDA-MB-435) [µM]	TGI (NCI-H460 lung) [µM]	TGI (SK-OV-3 ovarian) [µM]
COc1cccc2cc(C(C)=O)c(=O)oc12	> 100	> 100	> 100	> 100	> 100	> 100	> 100	> 100	> 100	> 100	> 100	> 100	> 100	> 100	> 100	> 100	> 100	> 100	–
CN(C(=O)Cc1cc(Cl)c(Cl)cc1NC(=O)CN)[C@H]1CCCC[C@@H]1N1CCCC1	32.6	–	> 100	> 100	98.4	> 100	51.2	> 100	> 100	> 100	57.5	> 100	> 100	> 100	31.7	> 100	32.6	> 100	> 100
O=C(Nc1sccc1S(=O)(=O)c1ccccc1)c1ccccc1	> 100	> 100	> 100	> 100	> 100	> 100	> 100	–	> 100	> 100	> 19.9	> 100	> 100	> 100	> 100	> 100	> 100	> 31.6	> 100
Cc1cccc(C)c1Nc1nc(C)c(C(=O)CC(=O)C(=O)Nc2c(C(C)C)cccc2C(C)C)s1	> 100	> 100	> 100	> 100	> 100	> 100	–	> 100	> 100	> 100	> 100	> 100	> 100	> 100	> 100	> 100	> 100	> 100	> 100
CC(=O)C(=[N+]=[N-])C(=O)N(C)CCC#N	> 10	–	> 10	> 10	> 10	> 10	> 10	> 10	> 10	> 10	> 10	> 10	> 10	> 10	> 10	> 10	> 10	> 10	> 10
Cc1ccc(S(=O)(=O)N/N=C2/CC3CCC4CC2CC34)cc1 (centres undefined)	> 100	> 100	> 100	> 100	> 100	> 100	> 100	–	> 100	> 100	> 100	> 100	> 100	> 100	> 100	> 100	> 100	> 100	> 100
COC(=O)/C=C\C(C#N)(C#N)N=Cc1sccc1C	> 40.6	4.78	3.8	25.3	5.92	6.69	27.9	4.22	3.9	29.6	> 100	–	15	3.88	15.1	19.8	9.84	31.4	34.1
COc1ccc(-n2c(=O)n(-c3ccccc3)c(=O)n2-c2ccc(OC)cc2)cc1	> 100	> 100	> 100	> 100	> 100	> 100	> 100	> 100	> 100	> 100	> 100	> 100	> 100	> 100	> 100	> 100	> 100	–	> 100
NC(=O)c1c(NC=O)ncn1C1OCC(O)C(O)C1O (centres undefined)	> 100	> 100	> 100	> 100	> 100	> 100	–	> 100	> 100	> 100	> 100	> 100	> 100	> 100	> 100	> 100	> 100	> 100	> 100
C[N+]1(CCC[N+]2(C)CC3C4C=CC(CC4)C3C2)CCOCC1 (centres undefined)	> 100	> 100	> 100	> 100	> 100	> 100	> 100	> 100	> 100	> 100	> 100	> 100	> 100	> 100	> 100	> 100	> 100	–	> 100
C=CCOc1ccccc1C1(O)c2ccccc2C2=NCCCN21 (centres undefined)	> 100	> 100	83.9	> 100	> 100	> 100	> 100	–	> 100	> 100	> 100	> 100	> 100	> 100	> 100	57.2	> 100	> 100	> 100
CO[C@@H]1C[C@H](OC(N)=O)[C@@H]2C=C[C@@H]3/C=C(C)/C=C/[C@@H](C)[C@H](/C(C)=C/[C@@H](C)NC(C)=O)OC(=O)/C=C/C=C(C)\C=C\[C@]3(C)[C@@H]2C1	0.375	0.604	0.613	2.84	2.98	0.107	0.0867	0.455	0.148	0.223	8.38	13.8	0.843	1.24	2.12	1.58	3.11	–	0.192
CC(C)(C)OC(=O)CN1CCN(CC(=O)N2CCN(C(=O)OCc3ccccc3)CC2)CCN(CC(=O)OC(C)(C)C)CCN(CC(=O)N2CCN(C(=O)OCc3ccccc3)CC2)CC1	9.51	3.92	22.3	12.5	18.8	> 38	35.7	17	11.4	16.3	–	5.05	34.3	8.5	7.65	12.5	7.36	6.98	16.5
